The text below walks through data of US8883827B2, “Azole derivatives as WTN pathway inhibitors” (Oslo University Hospital HF, priority 2009, dated 2014).

What all share (assay type): cell-based
In one experiment the test system is HCT-15. Description: MTS cell proliferation assay, Table 6. The conditions noted are these: 10 μM, 72 h, relative to DMSO control. An excerpt: (§1) Control cell lines used were HeLa cells (cell growth not controlled by canonical Wnt signalling) and colorectal cancer cell lines LS174T and HCT116 (with mutant β-catenin N-terminal phosphorylation sites). Target cell lines used were colorectal cancer cell lines WiDr, LoVo, HCT-8, HCT-15, COL0205, DLD-1, HT-29, SW620, SW1463, SW480 which all carry a mutant APC gene. Target cells, along with L Wnt3a-expressing cells and HEK293 cells, were purchased from ATCC (American Type Culture Collection) and maintained according to the supplier's recommendations. Wnt3a containing conditioned media (Wnt3a-CM) from L Wnt3a expressing cells was harvested as described by ATCC.
(§2) For the experiment giving the results shown in Table 6, cells were exposed to cell culture medium (including 10% FBS) containing 10 μM of the compound to be tested 24 hours after seeding (3000 cells on 96-well plates). Medium was changed daily. After 72 hours, an MTS assay (CellTiter 96® AQueous Non-Radioactive Cell Proliferation Assay—Promega) was carried out according to the standard procedure. 0.1% DMSO was used as a control.
(§3) The quantity of reduced MTS product (as measured by the absorbance at 490 nm) is directly proportional to the number of living cells in the culture and thus allows a direct comparison of cell proliferation in each case. DMSO was used as a control. The following formula was used to determine single well relative A490 sample values: ((Sample A490−Average A490t0)*100)/(Average A490t720.1% DMSO control−Average A490t0)
(§4) Data shown are A490-percentage values relative to the DMSO control, calculated as described above, and represent averages from 2 to 4 independent experiments (except SW1463 cells treated with IWR-1 which reports only a single experiment). Compounds IWR-1 and XAV939 are known Wnt pathway inhibitors.

In another experiment the test system is DLD-1. Kind of experiment: MTS cell proliferation assay, Table 6. The conditions noted are these: 10 μM, 72 h, relative to DMSO control.
Excerpt: as §1, §2, §3, §4

A further experiment relates to HCT116. Description: MTS cell proliferation assay, Table 6. To be noted: HCT116 (control); 10 μM, 72 h; relative to DMSO control.
Excerpt: as §1, §2, §3, §4

The next experiment deals with COLO205. Kind of experiment: MTS cell proliferation assay, Table 6. The conditions noted are these: 10 μM, 72 h, relative to DMSO control.
Excerpt: as §1, §2, §3, §4

Another experiment relates to SW1463. Description: MTS cell proliferation assay, Table 6. The conditions noted are these: 10 μM, 72 h, relative to DMSO control.
Excerpt: as §1, §2, §3, §4

A further experiment concerns HCT-8. Kind of experiment: MTS cell proliferation assay, Table 6. The conditions noted are these: 10 μM, 72 h, relative to DMSO control.
Excerpt: as §1, §2, §3, §4

A further experiment deals with SW480. Kind of experiment: MTS cell proliferation assay, Table 6. To be noted: 10 μM, 72 h, relative to DMSO control.
Excerpt: as §1, §2, §3, §4

In another experiment the test system is LoVo. Description: MTS cell proliferation assay, Table 6. The conditions noted are these: 10 μM, 72 h, relative to DMSO control.
Excerpt: as §1, §2, §3, §4

The test system of a further experiment is HT-29. Description: MTS cell proliferation assay, Table 6. To be noted: 10 μM, 72 h, relative to DMSO control.
Excerpt: as §1, §2, §3, §4

The next experiment concerns SW620. Kind of experiment: MTS cell proliferation assay, Table 6. The conditions noted are these: 10 μM, 72 h, relative to DMSO control.
Excerpt: as §1, §2, §3, §4

For the next experiment, the system named is HeLa cells. Kind of experiment: MTS cell proliferation assay, Table 6. The conditions noted are these: HeLa (control); 10 μM, 72 h; relative to DMSO control.
Excerpt: as §1, §2, §3, §4

The next experiment relates to LS174T. Description: MTS cell proliferation assay, Table 6. To be noted: LS174T (control); 10 μM, 72 h; relative to DMSO control.
Excerpt: as §1, §2, §3, §4

In a further experiment the test system is WiDr. Description: MTS cell proliferation assay, Table 6. To be noted: 10 μM, 72 h, relative to DMSO control.
Excerpt: as §1, §2, §3, §4

The test system of a further experiment is APC mutant cell lines. Description: MTS cell proliferation assay, Table 6, mean. To be noted: 10 μM, 72 h; for Ratio of means: APC mutant cell lines versus control cell lines; for Mean proliferation (APC mutant cell lines): ten APC mutant colorectal lines.
Excerpt: as §1, §2, §3, §4

The test system of a further experiment is control cell lines. Kind of experiment: MTS cell proliferation assay, Table 6, mean. To be noted: HeLa, HCT116, LS174T; 10 μM, 72 h.
Excerpt: as §1, §2, §3, §4

Experiment [1] relates to canonical Wnt signaling. Description: IC50 in STF/REN HEK293 cells, 50% Wnt3a-CM. The conditions noted are these: Homo sapiens; STF/REN HEK293, 50% Wnt3a-CM, 24 h. An outline of the steps:
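HEK293 cells carrying STF/REN reporters seeded at 80,000/well on poly-L-lysine; after 24 h, exposed 24 h to compound in 50% Wnt3a-conditioned medium. Firefly and Renilla luciferase measured by Dual-Glo; IC50 fitted to a Langmuir binding isotherm.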

The test system of experiment [2] is canonical Wnt signaling. Description: ST-Luc (SuperTOPFlash) Luciferase assay in HEK293 cells, 30% Wnt3a-CM. To be noted: Homo sapiens, HEK293; 10 μM compound, 30% Wnt3a-CM, 24 h; relative to DMSO control. An outline of the steps: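 HEK293 cells were transiently co-transfected with SuperTOPFlash firefly luciferase and pRL-TK Renilla reporters, then treated 24 h with 10 μM compound in 30% Wnt3a-conditioned medium. Dual luciferase activity was read, and percent activity was expressed relative to DMSO control.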

For another experiment, the system named is SW480 cells. Kind of experiment: Growth inhibition (GI50) MTS assay. To be noted: Homo sapiens, 72 h. How it is done: Growth inhibition curves were prepared using SW480 cells, prepared essentially according to Example 23. SW480 cells (3000 cells per well) were seeded on 96 well plates (eight replicates per treatment). 24 hours later and daily thereafter, cell culture media (including 10% FBS) was mixed with various compound concentrations or with 0.1% DMSO vehicle and then added to the wells. Sixteen wells of seeded control cells, defining incubation time zero (to =24 hour after cell seeding), were incubated with […] substrate in 100 μl of phenol-free D-MEM (Invitrogen) for 2 hours, as described in the CellTiter 96® AQueous Non-Radioactive Cell Proliferation Assay protocol (MTS, Promega). The A490 was recorded. The treatment samples were likewise measured after 72 hours. The following formula was used to determine the single well relative A490 sample values: ((Sample A490−Average A490t0)*100)/(Average A490t720.1% DMSO control−Average A490t0)
XLfit (idbs) was used to determine the IC50 and GI50 values in inhibition experiments. The data were fit to the following formulae:
GI50: Eadie-Hofstee Model: fit=(A+((B*x)/((C*(D+1))+x))) inv=(((y−A)*(C*(D+1)))/((A+B)−y)) res=(y−fit)

The subject of experiment [3] is SW480 colon carcinoma cells. Kind of experiment: MTS cell proliferation assay, Table 5. The conditions noted are these: Homo sapiens; SW480, 10 μM, 72 h; relative to DMSO control; read-out: Cell proliferation (%) for test compounds. How it is done: For the experiment giving the results shown in Table 5, cells (3000 per well) were seeded on 96 well plates (eight replicates per treatment). After 24 hours, and daily thereafter, cell culture medium (including 10% FBS) was mixed with 10 μM compounds or with 0.1% DMSO vehicle and then added to the wells. Sixteen wells of seeded control cells, defining incubation time zero (t0=24 hour after cell seeding), were incubated with 20 μl substrate in 100 μl phenol free D-MEM (Invitrogen) for 2 hours, as described in the CellTiter 96® AQueous Non-Radioactive Cell Proliferation Assay protocol (Promega). The A490 was recorded. The treatment samples were likewise measured after 72 hours.
as §3
The proliferation of SW480 cells (in percent) is the A492 value relative to that of the DMSO control.

Structures are written as SMILES.

For the molecule `O=C(Nc1cccc2cccnc12)c1ccc(N2C(=O)[C@@H]3[C@H](C2=O)[C@@H]2C=C[C@H]3C2)cc1` [IWR-1, reference compound], the “Cell proliferation (%)” value was determined as 64% with HCT-15; 97% in the experiment with DLD-1; 83% in the experiment on HCT116; 55% in the experiment on COLO205; 57% with SW1463; 70% with HCT-8. For the same molecule, the “Cell proliferation (%)” value in the experiment on SW480 amounted to 62%; with LoVo, 73%; in the experiment on HT-29 it was 33%; in the experiment with SW620, 48%; in the experiment on HeLa cells it was 77%; in the experiment with LS174T, 63%. Also, in the experiment on WiDr, the “Cell proliferation (%)” value turned out to be 61%. Moreover, the Ratio of means in the experiment on APC mutant cell lines is on record as 0.83. Further, the “Mean proliferation (APC mutant cell lines)” value in the experiment on APC mutant cell lines is given as 62%. Besides, the “Mean proliferation (control cell lines)” value with control cell lines is recorded as 74%.

Turning to `Oc1nc(-c2ccc(C(F)(F)F)cc2)nc2c1CSCC2` [XAV939, reference compound], the IC50 in the experiment with canonical Wnt signaling [1] is less than 100 nM. Besides, the “Cell proliferation (%)” value in the experiment on HCT-15 came to 90%; in the experiment on DLD-1 it was 102%; with HCT116 it was 109%; in the experiment with COLO205, 116%; with SW1463, 64%; with HCT-8 it was 105%. Moreover, the “Cell proliferation (%)” value in the experiment with SW480 is listed as 103%; with LoVo, 129%; in the experiment on HT-29 it was 100%; with SW620 it was 102%; in the experiment on HeLa cells it was 92%; in the experiment on LS174T, 97%. For the same molecule, the “Cell proliferation (%)” value with WiDr is reported as 94%. The activity at 10 µM with canonical Wnt signaling [2] came out at 7%. Also, in the experiment with APC mutant cell lines, the Ratio of means is reported as 1.01. Besides, in the experiment with APC mutant cell lines, the “Mean proliferation (APC mutant cell lines)” value worked out at 101%. Besides, the “Mean proliferation (control cell lines)” value with control cell lines was determined as 99%.

`Cc1ccc(-c2noc(CSc3nnc(-c4ccncc4)n3-c3ccccc3Cl)n2)cc1` [compound 43] gave an IC50 in the experiment on canonical Wnt signaling [1] of 160 nM. The “Cell proliferation (%)” value in the experiment with HCT-15 stood at 54%; in the experiment on DLD-1 it was 76%; in the experiment with HCT116, 86%; with COLO205, 33%; with SW1463, 1%; in the experiment on HCT-8 it was 69%. In addition, the “Cell proliferation (%)” value in the experiment with SW480 stood at 51%; in the experiment with LoVo, 64%; in the experiment on HT-29, 63%; in the experiment with SW620, 33%; with HeLa cells, 92%; with LS174T it was 99%. Moreover, the “Cell proliferation (%)” value in the experiment with WiDr is 76%. The activity at 10 µM in the experiment with canonical Wnt signaling [2] was found to be 7.8%. In the experiment on SW480 cells, this molecule returned a concentration for 50% growth inhibition (GI50) of 8000 nM. Moreover, the Ratio of means in the experiment on APC mutant cell lines worked out at 0.56. The “Mean proliferation (APC mutant cell lines)” value in the experiment on APC mutant cell lines was 52%. Besides, the “Mean proliferation (control cell lines)” value in the experiment on control cell lines amounted to 92%.

For `Cc1ccc(-c2nnc(CSc3nnc(-c4ccncc4)n3-c3ccccc3Cl)o2)cc1` [compound 60], the IC50 in the experiment on canonical Wnt signaling [1] was less than 100 nM. The “Cell proliferation (%)” value is reported as 54% with HCT-15; 78% in the experiment with DLD-1; 87% in the experiment with HCT116; 53% in the experiment on COLO205; 12% in the experiment with SW1463; 51% in the experiment with HCT-8. The “Cell proliferation (%)” value in the experiment with SW480 was 59%; with LoVo it was 67%; in the experiment on HT-29 it was 58%; in the experiment with SW620, 50%; in the experiment on HeLa cells, 92%; with LS174T, 105%. For the same molecule, in the experiment on WiDr, the “Cell proliferation (%)” value amounted to 70%. The activity at 10 µM in the experiment with canonical Wnt signaling [2] came out at 17.3%; in experiment [3], 49%. For the same molecule, the Ratio of means in the experiment on APC mutant cell lines is reported as 0.58. For the same molecule, the “Mean proliferation (APC mutant cell lines)” value in the experiment on APC mutant cell lines turned out to be 55%. In addition, in the experiment on control cell lines, the “Mean proliferation (control cell lines)” value came out at 95%.
